{"source": "ChEMBL document CHEMBL1250444", "about": "“Nitric oxide activates TRP channels by cysteine S-nitrosylation” (Nat Chem Biol, 2006)", "key": {"[1]": {"biological_target": "T1, Transient receptor potential cation channel subfamily V member 3 (Homo sapiens) (UniProt Q8NET8)", "T1 sequence (whole entry)": "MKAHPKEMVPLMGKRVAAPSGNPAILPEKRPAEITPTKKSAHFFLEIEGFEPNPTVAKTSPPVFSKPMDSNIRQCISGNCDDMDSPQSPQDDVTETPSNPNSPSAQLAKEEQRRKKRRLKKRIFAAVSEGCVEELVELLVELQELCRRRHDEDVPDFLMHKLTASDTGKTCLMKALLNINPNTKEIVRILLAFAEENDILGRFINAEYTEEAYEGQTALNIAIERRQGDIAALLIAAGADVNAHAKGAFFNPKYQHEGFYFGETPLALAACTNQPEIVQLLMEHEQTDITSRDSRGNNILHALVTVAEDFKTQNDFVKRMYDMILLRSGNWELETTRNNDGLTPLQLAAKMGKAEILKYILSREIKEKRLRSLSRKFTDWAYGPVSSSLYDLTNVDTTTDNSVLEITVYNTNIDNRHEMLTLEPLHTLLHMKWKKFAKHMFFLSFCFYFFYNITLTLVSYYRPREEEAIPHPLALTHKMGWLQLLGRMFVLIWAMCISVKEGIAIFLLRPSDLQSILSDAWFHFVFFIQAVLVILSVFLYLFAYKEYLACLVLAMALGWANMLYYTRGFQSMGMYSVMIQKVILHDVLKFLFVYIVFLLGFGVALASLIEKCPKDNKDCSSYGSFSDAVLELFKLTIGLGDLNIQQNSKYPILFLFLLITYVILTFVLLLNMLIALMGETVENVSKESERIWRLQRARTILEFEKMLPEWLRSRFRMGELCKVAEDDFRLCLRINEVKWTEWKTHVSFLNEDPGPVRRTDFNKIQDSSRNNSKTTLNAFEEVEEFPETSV", "assay": "Activation of TRPV3 in HEK cells assessed as increase in Ca2+ level from extracellular space at 10 uM", "type": "cell-based", "settings": "HEK293"}, "[2]": {"biological_target": "T2, Short transient receptor potential channel 5 (Homo sapiens) (UniProt Q9UL62)", "T2 sequence (whole entry)": "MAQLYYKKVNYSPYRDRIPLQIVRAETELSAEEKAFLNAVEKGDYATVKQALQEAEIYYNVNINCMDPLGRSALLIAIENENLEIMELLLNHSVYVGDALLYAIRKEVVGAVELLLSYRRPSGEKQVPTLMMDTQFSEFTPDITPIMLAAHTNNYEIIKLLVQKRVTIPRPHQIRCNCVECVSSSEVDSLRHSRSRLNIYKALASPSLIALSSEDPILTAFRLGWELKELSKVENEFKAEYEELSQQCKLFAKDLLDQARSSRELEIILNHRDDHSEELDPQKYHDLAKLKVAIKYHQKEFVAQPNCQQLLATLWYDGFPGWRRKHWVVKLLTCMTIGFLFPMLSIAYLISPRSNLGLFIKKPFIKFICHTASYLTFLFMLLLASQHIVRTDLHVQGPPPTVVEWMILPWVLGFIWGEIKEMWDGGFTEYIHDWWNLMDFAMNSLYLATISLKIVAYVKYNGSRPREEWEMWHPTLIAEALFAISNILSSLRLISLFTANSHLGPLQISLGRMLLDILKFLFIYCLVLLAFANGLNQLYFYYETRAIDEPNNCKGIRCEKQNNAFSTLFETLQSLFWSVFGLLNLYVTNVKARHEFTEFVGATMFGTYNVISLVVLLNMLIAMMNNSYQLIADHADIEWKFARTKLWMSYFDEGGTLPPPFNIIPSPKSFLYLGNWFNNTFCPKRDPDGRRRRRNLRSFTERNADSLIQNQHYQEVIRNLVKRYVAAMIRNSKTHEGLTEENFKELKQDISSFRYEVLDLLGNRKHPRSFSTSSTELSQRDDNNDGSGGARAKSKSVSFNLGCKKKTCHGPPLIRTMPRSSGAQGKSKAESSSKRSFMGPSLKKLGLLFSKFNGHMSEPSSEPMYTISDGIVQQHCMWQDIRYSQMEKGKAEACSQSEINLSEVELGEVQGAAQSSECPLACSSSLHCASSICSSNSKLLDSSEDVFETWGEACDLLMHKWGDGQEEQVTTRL", "assay": "Activation of TRPC5 expressed in BAEC expressing dominant negative mutant of TRPC5 assessed as increase in Ca2+ level from extracellular space at 100 uM"}, "[3]": {"biological_target": "T2, Short transient receptor potential channel 5 (Homo sapiens)", "assay": "Induction of S-nitrosylation of TRPC5 in HEK cells assessed as increase in Ca2+ level from extracellular space at 30 uM in presence of ascorbic acid", "type": "cell-based", "settings": "HEK293"}, "HEK293 [4]": {"system": "HEK293", "assay": "Activation of rat TRPV1 Cys621 mutant expressed in HEK cells assessed as increase in Ca2+ level from extracellular space at 10 uM", "type": "cell-based"}, "[5]": {"biological_target": "T2, Short transient receptor potential channel 5 (Homo sapiens)", "assay": "Induction of S-nitrosylation of TRPC5 in HEK cells assessed as increase in Ca2+ level from extracellular space at 30 uM", "type": "cell-based", "settings": "HEK293"}, "[6]": {"biological_target": "Transient receptor potential cation channel subfamily M member 2 (Homo sapiens) (UniProt O94759)", "sequence (O94759 whole entry)": "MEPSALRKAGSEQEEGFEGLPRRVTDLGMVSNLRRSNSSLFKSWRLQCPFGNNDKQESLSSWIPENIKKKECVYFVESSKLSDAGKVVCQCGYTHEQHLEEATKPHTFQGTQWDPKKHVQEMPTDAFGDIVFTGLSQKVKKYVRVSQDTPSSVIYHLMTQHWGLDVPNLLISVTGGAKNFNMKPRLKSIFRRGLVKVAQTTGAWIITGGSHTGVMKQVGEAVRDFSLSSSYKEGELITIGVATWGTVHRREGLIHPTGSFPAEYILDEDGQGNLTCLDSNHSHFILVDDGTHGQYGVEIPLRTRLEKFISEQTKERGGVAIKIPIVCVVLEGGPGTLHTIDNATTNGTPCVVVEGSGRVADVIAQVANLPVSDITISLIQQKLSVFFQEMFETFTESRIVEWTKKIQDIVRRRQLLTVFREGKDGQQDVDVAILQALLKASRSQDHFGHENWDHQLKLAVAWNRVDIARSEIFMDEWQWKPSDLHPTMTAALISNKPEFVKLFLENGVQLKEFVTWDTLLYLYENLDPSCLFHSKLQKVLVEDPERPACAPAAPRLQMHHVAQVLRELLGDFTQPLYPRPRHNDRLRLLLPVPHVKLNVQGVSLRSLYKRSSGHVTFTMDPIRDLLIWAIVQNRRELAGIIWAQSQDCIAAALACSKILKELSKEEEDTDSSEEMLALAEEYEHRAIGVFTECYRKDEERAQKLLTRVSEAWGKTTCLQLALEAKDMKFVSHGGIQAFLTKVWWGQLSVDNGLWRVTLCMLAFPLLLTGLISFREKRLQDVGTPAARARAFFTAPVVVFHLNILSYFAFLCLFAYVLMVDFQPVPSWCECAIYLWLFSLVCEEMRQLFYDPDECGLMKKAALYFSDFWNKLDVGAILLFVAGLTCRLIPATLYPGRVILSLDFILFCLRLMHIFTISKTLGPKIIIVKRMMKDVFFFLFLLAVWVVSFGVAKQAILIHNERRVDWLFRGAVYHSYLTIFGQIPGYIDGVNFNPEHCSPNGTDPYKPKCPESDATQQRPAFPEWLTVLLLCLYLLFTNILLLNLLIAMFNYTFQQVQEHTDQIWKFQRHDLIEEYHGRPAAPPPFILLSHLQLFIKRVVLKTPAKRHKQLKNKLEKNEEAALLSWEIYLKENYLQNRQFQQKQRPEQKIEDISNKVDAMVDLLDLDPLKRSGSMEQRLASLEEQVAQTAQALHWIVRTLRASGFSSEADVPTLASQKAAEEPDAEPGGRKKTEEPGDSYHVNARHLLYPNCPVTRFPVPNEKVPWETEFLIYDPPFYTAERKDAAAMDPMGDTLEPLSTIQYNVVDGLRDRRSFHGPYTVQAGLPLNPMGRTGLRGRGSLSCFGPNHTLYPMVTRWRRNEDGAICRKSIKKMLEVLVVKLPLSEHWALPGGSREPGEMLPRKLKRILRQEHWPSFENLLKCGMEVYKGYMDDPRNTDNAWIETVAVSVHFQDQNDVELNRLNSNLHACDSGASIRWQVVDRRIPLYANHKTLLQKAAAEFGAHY", "assay": "Induction of TRPM2 S-nitrosylation in HEK cells assessed as increase in Ca2+ level from extracellular space at 30 uM", "type": "cell-based", "settings": "HEK293"}, "[7]": {"biological_target": "Transient receptor potential cation channel subfamily V member 1 (Rattus norvegicus) (UniProt O35433)", "sequence (O35433 whole entry)": "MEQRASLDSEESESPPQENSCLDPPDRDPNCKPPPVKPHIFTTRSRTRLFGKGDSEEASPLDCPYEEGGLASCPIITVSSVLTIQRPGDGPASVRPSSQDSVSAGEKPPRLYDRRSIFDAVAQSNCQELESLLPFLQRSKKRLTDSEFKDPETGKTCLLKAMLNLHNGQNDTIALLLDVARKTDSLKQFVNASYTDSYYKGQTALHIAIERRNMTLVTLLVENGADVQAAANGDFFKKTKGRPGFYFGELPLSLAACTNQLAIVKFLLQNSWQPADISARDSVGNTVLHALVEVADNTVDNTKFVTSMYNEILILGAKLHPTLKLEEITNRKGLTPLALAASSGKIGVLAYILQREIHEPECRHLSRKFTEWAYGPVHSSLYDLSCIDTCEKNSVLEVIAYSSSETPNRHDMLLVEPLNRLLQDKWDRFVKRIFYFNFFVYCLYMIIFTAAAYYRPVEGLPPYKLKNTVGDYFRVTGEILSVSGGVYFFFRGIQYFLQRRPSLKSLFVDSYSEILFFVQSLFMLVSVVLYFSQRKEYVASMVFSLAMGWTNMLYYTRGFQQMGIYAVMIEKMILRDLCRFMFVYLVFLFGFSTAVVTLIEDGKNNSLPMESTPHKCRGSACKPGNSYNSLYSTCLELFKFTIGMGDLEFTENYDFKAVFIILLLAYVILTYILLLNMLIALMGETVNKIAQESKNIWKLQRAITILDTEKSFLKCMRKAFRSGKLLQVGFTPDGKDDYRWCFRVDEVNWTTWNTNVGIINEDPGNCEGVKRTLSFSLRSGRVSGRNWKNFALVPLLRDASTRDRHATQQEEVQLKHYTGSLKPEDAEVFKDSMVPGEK", "assay": "Activation of rat TRPV1 expressed in HEK cells assessed as increase in Ca2+ level from extracellular space at 10 uM", "type": "cell-based", "settings": "HEK293"}, "[8]": {"biological_target": "T2, Short transient receptor potential channel 5 (Homo sapiens)", "assay": "Induction of S-nitrosylation of TRPC5 in HEK cells assessed as increase in Ca2+ level from extracellular space at 10 uM", "type": "cell-based", "settings": "HEK293"}, "HEK293 [9]": {"system": "HEK293", "assay": "Induction of rat TRPV1 Cys621 mutant S-nitrosylation expressed in HEK cells assessed as increase in Ca2+ level from extracellular space at 0.1 to 1 mM", "type": "cell-based"}, "HEK293 [10]": {"system": "HEK293", "assay": "Induction of rat TRPV1 Cys616 mutant S-nitrosylation expressed in HEK cells assessed as increase in Ca2+ level from extracellular space at 0.1 to 1 mM", "type": "cell-based"}, "[11]": {"biological_target": "T2, Short transient receptor potential channel 5 (Homo sapiens)", "assay": "Activation of TRPC5 expressed in BAEC expressing dominant negative mutant of TRPC5 assessed as increase in Ca2+ level from extracellular space at 300 uM"}, "HEK293 [12]": {"system": "HEK293", "assay": "Activation of rat TRPV1 Cys621 mutant expressed in HEK cells assessed as increase in Ca2+ level from extracellular space at 0.1 to 1 mM", "type": "cell-based"}, "[13]": {"biological_target": "T2, Short transient receptor potential channel 5 (Homo sapiens)", "assay": "Activation of TRPC5 expressed in BAEC expressing TRPC5 siRNA assessed as increase in Ca2+ level from extracellular space at 300 uM"}, "[14]": {"biological_target": "T2, Short transient receptor potential channel 5 (Homo sapiens)", "assay": "Induction of S-nitrosylation of TRPC5 in HEK cells assessed as increase in Ca2+ level from extracellular space at 1 mM in presence of ascorbic acid", "type": "cell-based", "settings": "HEK293"}, "[15]": {"biological_target": "T1, Transient receptor potential cation channel subfamily V member 3 (Homo sapiens)", "assay": "Activation of TRPV3 in HEK cells assessed as increase in Ca2+ level from extracellular space at 300 uM", "type": "cell-based", "settings": "HEK293"}, "[16]": {"biological_target": "T2, Short transient receptor potential channel 5 (Homo sapiens)", "assay": "Induction of S-nitrosylation of TRPC5 in HEK cells assessed as increase in Ca2+ level from extracellular space at 300 uM", "type": "cell-based", "settings": "HEK293"}}, "note": "Active and inactive are the calls of the source. The calls are words filed in the database; no cut-off is given here.", "data": [{"molecule": "O=[N+]([O-])c1ccc(SSc2ccc([N+](=O)[O-])cn2)nc1", "values": [{"measurement": "Activity", "setting": "[1]", "value": "Active"}, {"measurement": "Activity", "setting": "[2]", "value": "inactive"}, {"measurement": "Activity", "setting": "[3]", "value": "Active"}, {"measurement": "Activity", "setting": "HEK293 [4]", "value": "inactive"}, {"measurement": "Activity", "setting": "[5]", "value": "Active"}, {"measurement": "Activity", "setting": "[6]", "value": "inactive"}, {"measurement": "Activity", "setting": "[7]", "value": "Active"}]}, {"molecule": "CC(=O)N[C@@H](C(=O)O)C(C)(C)SN=O", "note": "(racemic)", "values": [{"measurement": "Activity", "setting": "[8]", "value": "Active"}, {"measurement": "Activity", "setting": "HEK293 [9]", "value": "inactive"}, {"measurement": "Activity", "setting": "HEK293 [10]", "value": "inactive"}, {"measurement": "Activity", "setting": "[11]", "value": "inactive"}, {"measurement": "Activity", "setting": "HEK293 [12]", "value": "inactive"}, {"measurement": "Activity", "setting": "[13]", "value": "inactive"}, {"measurement": "Activity", "setting": "[14]", "value": "inactive"}, {"measurement": "Activity", "setting": "[15]", "value": "Active"}, {"measurement": "Activity", "setting": "[16]", "value": "Active"}]}]}
